Results from article PMC6115343 (The Korean Journal of Physiology & Pharmacology : …, 2018).
pIC50: −log10 of the molar value.

Biological target: Transient receptor potential vanilloid 1 (TRPV1) (Mus musculus, UniProt Q704Y3)
Assay: whole-cell patch clamp of native TRPV1 currents in cultured mouse DRG neurons
Type: cell-based

Chain of Transient receptor potential vanilloid 1 (TRPV1) (Q704Y3 whole entry): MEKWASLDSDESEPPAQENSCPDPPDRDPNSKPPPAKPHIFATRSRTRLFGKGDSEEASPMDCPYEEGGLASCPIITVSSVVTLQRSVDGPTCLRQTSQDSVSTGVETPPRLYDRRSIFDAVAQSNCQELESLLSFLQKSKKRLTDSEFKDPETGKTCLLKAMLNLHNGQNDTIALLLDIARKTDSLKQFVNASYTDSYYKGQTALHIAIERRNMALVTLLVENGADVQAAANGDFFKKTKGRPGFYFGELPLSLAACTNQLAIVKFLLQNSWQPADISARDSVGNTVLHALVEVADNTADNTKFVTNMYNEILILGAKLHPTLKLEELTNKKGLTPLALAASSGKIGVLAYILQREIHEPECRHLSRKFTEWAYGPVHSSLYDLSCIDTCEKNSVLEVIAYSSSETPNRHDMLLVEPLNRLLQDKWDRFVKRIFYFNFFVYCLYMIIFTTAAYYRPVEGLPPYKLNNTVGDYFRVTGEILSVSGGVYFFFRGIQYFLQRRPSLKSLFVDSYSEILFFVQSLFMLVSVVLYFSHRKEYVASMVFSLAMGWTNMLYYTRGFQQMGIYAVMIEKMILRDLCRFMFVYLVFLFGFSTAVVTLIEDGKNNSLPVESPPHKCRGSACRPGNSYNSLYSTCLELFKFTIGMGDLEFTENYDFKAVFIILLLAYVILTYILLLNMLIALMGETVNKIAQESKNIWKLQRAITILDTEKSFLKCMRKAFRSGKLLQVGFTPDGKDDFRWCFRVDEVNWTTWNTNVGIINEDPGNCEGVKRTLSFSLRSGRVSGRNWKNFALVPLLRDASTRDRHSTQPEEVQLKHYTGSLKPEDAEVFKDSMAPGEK

pIC50: 6.28
Structure (SMILES): COc1cc(/C=C/C(=O)CC(=O)/C=C/c2ccc(O)c(OC)c2)ccc1O [curcumin]
